What was measured:
Settings in all cases: 72 h
U2OS [1] = assay: GR50 (concentration giving GR = 0.5)
Procedure: (§1)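 U2OS cells treated with full dose titrations of drug; live and dead cells counted by STACK microscopy (mKate2 nuclei, SYTOX Green) at 72 h, biological triplicates. GR and FV dose responses were fitted with 4-parameter logistic models (GR lower bound -1). GRADE (0-100) is the rescaled angle of a linear fit of FV versus GR at doses with GR >= 0, giving the percentage of the response due to cell death.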

U2OS [2] = assay: fractional viability (live cells / total cells); higher = less cell death
Procedure: (§2)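 U2OS::Nuc-mKate2 cells seeded in 96-well plates and treated with eight- to ten-point half-log or log dilutions of drug in the presence of 50 nM SYTOX Green. Live (mKate2+) and dead (SYTOX+) cells were counted by IncuCyte STACK live-cell microscopy at 72 h; biological triplicates. GR is the normalised growth-rate inhibition value (Hafner 2016; 1 = untreated growth, <0 = population shrinking). FV is live/(live+dead) cells, not normalised.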

U2OS [3] = assay: drug GRADE (percent of response due to cell death) (% (0-100)); higher = more death-driven response
Procedure: as §1

U2OS [4] = assay: GRmin (fitted minimal GR value at highest effect) (GR value (dimensionless)); higher = less efficacious
Procedure: as §1

U2OS [5] = assay: normalized growth rate inhibition value (GR) relative to untreated cells (GR value (dimensionless, 1 = untreated growth)); higher = less growth inhibition
Procedure: as §2

U2OS [6] = assay: FV IC50 (concentration giving fractional viability 0.5); higher = less potent killing
Procedure: as §1

CS(=O)(=O)N1CCN(Cc2cc3nc(-c4cccc5[nH]ncc45)nc(N4CCOCC4)c3s2)CC1 [Pictilisib]
Settings	GR50 [µM]	GRmin	drug GRADE
U2OS [1]	1.48	–	–
U2OS [3]	–	–	30.9
U2OS [4]	–	0.374	–

Settings	fractional viability, U2OS [2]	normalized growth rate inhibition value, U2OS [5]
0.00100578 µM	0.988	1.02
0.00317827 µM	0.989	0.948
0.0100433 µM	0.985	0.953
0.0317369 µM	0.985	0.837
0.100289 µM	0.975	0.872
0.316912 µM	0.96	0.842
1.00144 µM	0.936	0.628
3.16456 µM	0.844	0.306
10 µM	0.854	0.455

Cc1cc2c(C(=O)NC[C@H](C)c3ccccc3)c(O)c(O)cc2c(O)c1-c1c(C)cc2c(C(=O)NC[C@H](C)c3ccccc3)c(O)c(O)cc2c1O [Sabutoclax]
Settings	GR50 [µM]	GRmin	drug GRADE
U2OS [1]	3.32	–	–
U2OS [3]	–	–	27.4
U2OS [4]	–	-0.234	–

Settings	fractional viability, U2OS [2]	normalized growth rate inhibition value, U2OS [5]
0.01 µM	0.979	0.995
0.0316 µM	0.983	0.971
0.1 µM	0.982	1.12
0.316 µM	0.975	0.844
1 µM	0.982	0.77
3.16 µM	0.936	0.533
10 µM	0.878	0.175
31.6 µM	0.681	-0.0541

CC[C@@H](C(=O)[C@@H](C)[C@@H](O)[C@H](C)[C@@H]1O[C@@H]([C@@H](CC)C(=O)O)CC[C@@H]1C)[C@H]1O[C@]2(C=C[C@@H](O)[C@]3(CC[C@@](C)([C@H]4CC[C@](O)(CC)[C@H](C)O4)O3)O2)[C@H](C)C[C@@H]1C [Salinomycin]
Settings	FV IC50 [µM]	GR50 [µM]	drug GRADE
U2OS [1]	–	2.41	–
U2OS [3]	–	–	59.9
U2OS [6]	17.5	–	–

Settings	fractional viability, U2OS [2]	normalized growth rate inhibition value, U2OS [5]
0.01 µM	0.982	1.07
0.0316 µM	0.975	0.992
0.1 µM	0.977	0.814
0.316 µM	0.955	0.77
1 µM	0.899	0.63
3.16 µM	0.725	0.405
10 µM	0.722	0.316
31.6 µM	0.322	-0.253

CN1CCN(CCOc2cc(OC3CCOCC3)c3c(Nc4c(Cl)ccc5c4OCO5)ncnc3c2)CC1 [Saracatinib]
Settings	GR50 [µM]	GRmin	drug GRADE
U2OS [1]	2.59	–	–
U2OS [3]	–	–	28.7
U2OS [4]	–	-0.134	–

Settings	fractional viability, U2OS [2]	normalized growth rate inhibition value, U2OS [5]
0.00100578 µM	0.989	1.02
0.00317827 µM	0.989	1.04
0.0100433 µM	0.987	1
0.0317369 µM	0.986	0.977
0.100289 µM	0.98	0.978
0.316912 µM	0.965	0.823
1.00144 µM	0.929	0.608
3.16456 µM	0.915	0.528
10 µM	0.833	0.205

O=C1NC(=O)[C@@H](c2cn3c4c(cccc24)CCC3)[C@@H]1c1c[nH]c2ccccc12 [Tivantinib]
Settings	GR50 [µM]	GRmin	drug GRADE
U2OS [1]	0.169	–	–
U2OS [3]	–	–	42.8
U2OS [4]	–	-0.31	–

Settings	fractional viability, U2OS [2]	normalized growth rate inhibition value, U2OS [5]
0.00100578 µM	0.99	0.95
0.00317827 µM	0.991	1.03
0.0100433 µM	0.986	0.977
0.0317369 µM	0.988	0.86
0.100289 µM	0.975	0.598
0.316912 µM	0.844	0.299
1.00144 µM	0.613	0.049
3.16456 µM	0.683	-0.107
10 µM	0.481	-0.3

CCC(=O)N1CCN(c2ccc(-n3c(=O)ccc4cnc5ccc(-c6cnc7ccccc7c6)cc5c43)cc2C(F)(F)F)CC1 [Torin 1]
Settings	GR50 [µM]	GRmin	drug GRADE
U2OS [1]	0.473	–	–
U2OS [3]	–	–	21.4
U2OS [4]	–	0.106	–

Settings	fractional viability, U2OS [2]	normalized growth rate inhibition value, U2OS [5]
0.01 µM	0.977	1.02
0.0316 µM	0.976	0.896
0.1 µM	0.966	0.749
0.316 µM	0.954	0.525
1 µM	0.937	0.404
3.16 µM	0.917	0.275
10 µM	0.895	0.147
31.6 µM	0.792	0.114

CC[C@]1(O)C[C@H]2CN(CCc3c([nH]c4ccccc34)[C@@](C(=O)OC)(c3cc4c(cc3OC)N(C=O)[C@H]3[C@@](O)(C(=O)OC)[C@H](OC(C)=O)[C@]5(CC)C=CCN6CC[C@]43[C@@H]65)C2)C1 [Vincristine]
Settings	fractional viability, 0.00316 µM	fractional viability, 0.0316 µM	fractional viability, 0.316 µM	fractional viability, 3.16 µM	fractional viability, 31.6 µM	normalized growth rate inhibition value, 0.00316 µM	normalized growth rate inhibition value, 0.0316 µM	normalized growth rate inhibition value, 0.316 µM	normalized growth rate inhibition value, 3.16 µM	normalized growth rate inhibition value, 31.6 µM
U2OS [2]	0.548	0.426	0.472	0.427	0.415	–	–	–	–	–
U2OS [5]	–	–	–	–	–	0.251	0.0808	0.0568	-0.0172	0.0544

Settings	FV IC50 [µM]	GRmin	drug GRADE
U2OS [3]	–	–	67.6
U2OS [4]	–	0.000271	–
U2OS [6]	0.0107	–	–

CC[C@@H]1C(=O)N(C)c2cnc(Nc3ccc(C(=O)N[C@H]4CC[C@H](N5CCN(CC6CC6)CC5)CC4)cc3OC)nc2N1C(C)C [Volasertib]
Settings	GR50 [µM]	GRmin	drug GRADE
U2OS [1]	0.0162	–	–
U2OS [3]	–	–	17.9
U2OS [4]	–	-0.24	–

Settings	fractional viability, U2OS [2]	normalized growth rate inhibition value, U2OS [5]
0.000100578 µM	0.988	0.973
0.000317827 µM	0.986	1.07
0.00100433 µM	0.987	1.1
0.00317369 µM	0.986	1
0.0100289 µM	0.964	0.717
0.0316912 µM	0.86	0.122
0.100144 µM	0.725	-0.136
0.316456 µM	0.563	-0.25
1 µM	0.548	-0.259

— the supplement of paper PMC7394473
